From patent publication US8728515B2, “Adjuvants for use in vaccination” (Bangor University, priority 2008, dated 2014)

Experiments:
C57BL/6 mice = assay: Inflammatory cell infiltration to the airways and lung tissue damage after intratracheal mycolic acid liposomes; format: in vivo; details: liposomes intratracheally, 25 μg mycolic acids/100 μl/mouse, after 48 hours
Protocol: (§1) Female C57BL/6J mice were purchased from Janvier and housed under specific pathogen free conditions in individually ventilated cages and fed ad libitum. Mice were 8-12 weeks old at the start of experiments.
(§2) Briefly, the compounds were mixed with phosphatidylcholine (Sigma) in chloroform. The chloroform was evaporated and the lipids recovered in sterile saline. After ultrasound sonication and vortexing, samples of 25 μg mycolic acids/100 μl/mouse were administered intratracheally. A liposome control was prepared similarly, but without the addition of any mycolic acid compound.
In order to be considered safe for human administration, compounds should preferably cause as little local inflammation or resulting tissue changes as possible.
After 48 hours, mice were sacrificed and a broncho-alveolar lavage (BAL) was performed to measure the airway cell types and numbers by flowcytometry. Increased cell numbers and the appearance of granulocytes (mainly neutrophils) in the BAL-fluid are indicative for cell recruitment to the airways as result of an inflammatory reaction.
Lavaged lungs were ectomised to allow for histo-pathological examination of the lung tissue. A haematoxylin and eosin staining of the paraffin lung sections was followed by a thorough examination by a skilled pathologist who scored the sections according to the following criteria in a double-blinded manner: […]

airway CD11c+ cells = assay: Gene transcription profiling of airway CD11c+ cells (RT-qPCR on broncho-alveolar lavage cells after intratracheal liposomes); format: in vivo, mouse; details: liposomes intratracheally, after 48 hours
Protocol: as §1, §2
Airway CD11c^+ cells include alveolar macrophages and dendritic cells, which are professional phagocytes and the most important cell types in the early recognition of non-self threats to the airways. Next to mounting an immediate appropriate innate immune response to these threats, CD11c^+ cells alert and instruct adaptive immune responses by means of 3 different signals: antigen-presentation, surface expression of T-cell co-stimulatory molecules and secretion of instruction cytokines. Whereas dendritic cells migrate to the draining lymph nodes in order to initiate a peripheral antigen-specific immune response, alveolar macrophages remain in the airways to further control local inflammation, but also to locally attract and orchestrate the acquired immune response by lymphocytes.
In order for a locally applied vaccine to be effective, safe adjuvants that give the appropriate signal to CD11c^+ cells are needed to both increase the immunogenicity of the vaccine and direct the type of the acquired immune response. […] After 48 hours, the mice were sacrificed and broncho-alveolar lavage performed to measure the CD11c^+-cell gene transcription by RT-qPCR.

## CCCCCCCCCCCCCCCCCCCCCCCC[C@@H](C(=O)O)[C@H](O)CCCCCCCCCCCCCCC[C@@H]1C[C@@H]1CCCCCCCCCCCCCCCCCCC(=O)[C@@H](C)CCCCCCCCCCCCCCCCCC (single isomer, unassigned) [Example 3]
other
  melting point: 66 to 68 °C

## CCCCCCCCCCCCCCCCCCCCCCCC[C@@H](C(=O)O)[C@H](O)CCCCCCCCCCCCCCCC[C@H]1C[C@@H]1[C@@H](C)CCCCCCCCCCCCCCCCCCC(=O)C(C)CCCCCCCCCCCCCCCCCC (some centres unmarked) [Compound 4]
C57BL/6 mice
  lung tissue changes (histo-pathological examination of lung sections): did not cause any significant lung tissue changes

## CCCCCCCCCCCCCCCCCCCCCCCC[C@@H](C(=O)O)[C@H](O)CCCCCCCCCCCCCCCCC[C@@H]1CC1CCCCCCCCCCCCCCCC[C@@H](OC)[C@@H](C)CCCCCCCCCCCCCCCCCC (some centres unmarked) [Compound 6]
Airway CD11c+ cells; alveolar macrophages
  type of macrophage activation (iNOS = classical, Fizz1 = alternative marker): mixed type of activation
Airway CD11c+ cells
  KC (CXCL1) expression: increased
  MCP-1 (CCL2) expression: enhance MCP-1 expression even to a greater extend than crude-MA
  expression of IL-12p40: strongly stimulate
  induction of expression of IL-10: maintained
Airway CD11c+ cells; compared with crude-MA
  expression of the inflammatory cytokines TNF-alpha and IL-6: less pronounced or absent
